Like-named read-outs stand apart in the source and are kept apart here.
Assays:
[1] = molecular target: Granzyme B (human lymphocytes) (Homo sapiens (Human), UniProt P10144); assay: human Granzyme B biochemical assay
Outline: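 Fluorogenic Ac-IETD-AFC cleavage (Ex 400/Em 505 nm) read after 60 min at 22 °C, following 30 min, 22 °C enzyme–compound pre-incubation. Working stocks: enzyme 10 nM in 0.1% BSA buffer, substrate 800 µM, compound 8 points, 3.16-fold from 40 µM. Controls set 0% (DMSO) and 100% (standard inhibitor) inhibition; IC50 fitted.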

[2] = metabolic stability assay using liver microsomes; format: in vitro ADME; conditions: human liver microsomes, with NRS at 37° C.
Description: In addition, compounds of Formula I-VIII described above are also tested in the metabolic stability assay using liver microsomes, as provided below.
Buffer pH7.4: Prepare 1 (M) KH2PO4 and 1 (M) K2HPO4. Titrate 1(M) K2HPO4 with 1 (M) KH2PO4 to obtain pH 7.40. Dilute this buffer 10 fold in Water (30 ml buffer+270 ml of water) to obtain 100 mM phosphate buffer. Adjust pH to 7.40±0.02 using 5(N) HCl or 5(N) NaOH.
NADPH Regeneration System (NRS): Prepare a solution containing 13 mM NADP, 33 mM Glucose-6-phosphate, 33 mM MgCl2 and 4 U/ml Glucose-6-phosphate dehydrogenase in buffer.
Liver Microsome (LM) suspension: Thaw LM vial on ice, then mix 1.0 ml LM (20 mg/ml) with 19 ml buffer [final LM Conc: 1 mg/ml]
LM+NRS suspension: Mix 5.0 ml NRS with 20 ml LM suspension [final LM Conc: 0.8 mg/ml]
System suitability standard: a synthesized compound having Mol wt 686.2 used as System suitability standard. Dissolve this compound in ice-cold acetonitrile to obtain concentration of 0.1 μg/ml and store at 4° C.
Compound Stock: 10 mM in DMSO
Sub stock (100 μM): 4 μl of 10 mM Compound Stock+[…] Acetonitrile
Working plate (2 μM): 10 μl of 100 μM Sub stock+490 μl buffer
Incubate all plastic materials including tips at 37° C. overnight.
Incubate LM suspension and NRS at 37° C. for 15 min before use.
Add 40 μl buffer to the wells of blank plate.
Add 40 μl compound (from working plate) to 0, 5, 10, 20, 30 and 60 min plates.
Initiate reaction by adding 40 μl of LM+NRS suspension in each plate.
Terminate reaction by adding 240 μl ice-cold acetonitrile containing system suitability standard at designated time points. For T=0 add 240 μl ice-cold acetonitrile containing system suitability standard before LM+NRS addition.
Centrifuge (3500 rpm, 20 min and 15° C.) the plates.
Mix 110 μl supernatant with 110 μl water and quantitate amount of Compound in the solution using LC-MS/MS.
For Scaled CLint & Predicted CL use the relevant physiological parameters, as applicable.
Human LM: Corning, Cat #25117
Mouse LM: Xenotech, Cat #M1000
(2) Volumes mentioned in the protocol are representative values and may change depending on number of test compounds.
(3) It is assumed that the compounds are chemically stable in the assay system/buffer.
The metabolic stability assay described above can be performed using different test concentrations, LM Concentrations, or time points.
Certain compounds of this disclosure were tested in the microsomal stability assay provided above.

[3] = Granzyme B IC50 as repeated in Table 7, read-out: IC50
[4] = Granzyme B (human lymphocytes) 5 nM, substrate Ac-IETD-AFC 200 μM, Cpd incubation with enzyme 30 mins, 22° C., read time 60 mins, read-out: IC50
[5] = Granzyme B IC50 as repeated in Table 7

Granzyme B (human lymphocytes), sequence (P10144 21-247): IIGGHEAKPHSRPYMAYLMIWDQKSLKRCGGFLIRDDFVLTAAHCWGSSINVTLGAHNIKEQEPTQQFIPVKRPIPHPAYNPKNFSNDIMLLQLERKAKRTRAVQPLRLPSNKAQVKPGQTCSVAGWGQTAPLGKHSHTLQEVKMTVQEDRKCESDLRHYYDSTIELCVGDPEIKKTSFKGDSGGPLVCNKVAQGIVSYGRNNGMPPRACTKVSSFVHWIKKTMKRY

Row | IC50 [1, 3] | IC50 [1, 4] | biological potency of separated isomer (in words) ([1]; isomers separated by prep HPLC or column chromatography) | Compound | HLM % remaining @ 30 min [2] | IC50 [1] | IC50 [1, 5]
1 | 1 to 300 nM | – | – | CC(C)[C@H](NC(=O)Cc1csc2ccccc12)C(=O)N[C@H]1CCc2cccc3c2N(C1=O)[C@H](C(=O)NCc1c[nH]nn1)C3 [Compound C003, (2S,5S)-5-[(S)-2-(2-Benzo[b]thiophen-3-yl-acetylamino)-3-methyl-butyrylamino]-4-oxo-1,2,4,5,6,7-hexahydro-azepino[3,2,1-hi]indole-2-carboxylic acid (1H-[1,2,3]triazol-4-ylmethyl)-amide] | * (“*” indicates a remaining percentage of 0-30%) | – | –
2 | 1 to 300 nM | 1 to 300 nM | biologically potent | CC[C@H](C)[C@H](NC(=O)Cc1csc2ccccc12)C(=O)N[C@H]1CCc2cccc3c2N(C1=O)[C@H](C(=O)NCc1c[nH]nn1)C3 [Compound C006, (2S,5S)-5-[(2S,3S)-2-(2-Benzo[b]thiophen-3-yl-acetylamino)-3-methyl-pentanoylamino]-4-oxo-1,2,4,5,6,7-hexahydro-azepino[3,2,1hi]indole-2-carboxylic acid (1H-[1,2,3]triazol-4-ylmethyl)-amide] | * (“*” indicates a remaining percentage of 0-30%) | – | –
3 | 1 to 300 nM | 1 to 300 nM | – | CC(=O)N[C@H](C(=O)N[C@H]1CCc2cccc3c2N(C1=O)[C@H](C(=O)NCc1c[nH]nn1)C3)C(C)C [Compound C025, (2S,5S)-5-((S)-2-Acetylamino-3-methyl-butyrylamino)-4-oxo-1,2,4,5,6,7-hexahydro-azepino[3,2,1-hi]indole-2-carboxylic acid (1H-[1,2,3]triazol-4-ylmethyl)-amide] | *** (the symbol “***” indicates a remaining percentage of 71-100%) | – | –
4 | 1 to 300 nM | 1 to 300 nM | – | CC[C@H](C)[C@H](NC(C)=O)C(=O)N[C@H]1CCc2cccc3c2N(C1=O)[C@H](C(=O)NCc1c[nH]nn1)C3 [Compound C028, (2S,5S)-5-((2S,3S)-2-Acetylamino-3-methyl-pentanoylamino)-4-oxo-1,2,4,5,6,7-hexahydro-azepino[3,2,1-hi]indole-2-carboxylic acid (1H-[1,2,3]triazol-4-ylmethyl)-amide] | *** (the symbol “***” indicates a remaining percentage of 71-100%) | – | –
5 | 1 to 300 nM | 1 to 300 nM | – | CC(C)[C@H](NC(=O)c1ccccc1)C(=O)N[C@H]1CCc2cccc3c2N(C1=O)[C@H](C(=O)NCc1c[nH]nn1)C3 [Compound C036, (2S,5S)-5-((S)-2-Benzoylamino-3-methyl-butyrylamino)-4-oxo-1,2,4,5,6,7-hexahydro-azepino[3,2,1-hi]indole-2-carboxylic acid (1H-[1,2,3]triazol-4-ylmethyl)-amide] | *** (the symbol “***” indicates a remaining percentage of 71-100%) | – | –
6 | 1 to 300 nM | 1 to 300 nM | – | CC[C@H](C)[C@H](NC(=O)c1ccccc1)C(=O)N[C@H]1CCc2cccc3c2N(C1=O)[C@H](C(=O)NCc1c[nH]nn1)C3 [Compound C039, (2S,5S)-5-((2S,3S)-2-Benzoylamino-3-methyl-pentanoylamino)-4-oxo-1,2,4,5,6,7-hexahydro-azepino[3,2,1-hi]indole-2-carboxylic acid (1H-[1,2,3]triazol-4-ylmethyl)-amide] | ** (“**” indicates a remaining percentage of 31-70%) | – | –
7 | 1 to 300 nM | 1 to 300 nM | – | CC[C@@H](C)[C@H](NC(=O)c1ccccc1)C(=O)N[C@H]1CCc2cccc3c2N(C1=O)[C@H](C(=O)NCc1c[nH]nn1)C3 [Compound C053, (2S,5S)-5-((2S,3R)-2-Benzoylamino-3-methyl-pentanoylamino)-4-oxo-1,2,4,5,6,7-hexahydro-azepino[3,2,1-hi]indole-2-carboxylic acid (1H-[1,2,3]triazol-4-ylmethyl)-amide] | ** (“**” indicates a remaining percentage of 31-70%) | – | –
8 | 1 to 300 nM | 1 to 300 nM | – | CC[C@@H](C)[C@H](NC(=O)Cc1csc2ccccc12)C(=O)N[C@H]1CCc2cccc3c2N(C1=O)[C@H](C(=O)NCc1c[nH]nn1)C3 [Compound C054, (2S,5S)-5-[(2S,3R)-2-(2-Benzo[b]thiophen-3-yl-acetylamino)-3-methyl-pentanoylamino]-4-oxo-1,2,4,5,6,7-hexahydro-azepino[3,2,1-hi]indole-2-carboxylic acid (1H-[1,2,3]triazol-4-ylmethyl)-amide] | * (“*” indicates a remaining percentage of 0-30%) | – | –
9 | 1 to 300 nM | 1 to 300 nM | – | CC(C)[C@H](NC(=O)COCCF)C(=O)N[C@H]1CCc2cccc3c2N(C1=O)[C@H](C(=O)NCc1c[nH]nn1)C3 [Compound C056, (2S,5S)-5-{(S)-2-[2-(2-Fluoro-ethoxy)-acetylamino]-3-methyl-butyrylamino}-4-oxo-1,2,4,5,6,7-hexahydro-azepino[3,2,1-hi]indole-2-carboxylic acid (1H-[1,2,3]triazol-4-ylmethyl)-amide] | *** (the symbol “***” indicates a remaining percentage of 71-100%) | – | –
10 | – | – | – | CC(C)[C@H](NC(=O)CF)C(=O)N[C@H]1CCc2cccc3c2N(C1=O)[C@H](C(=O)NCc1c[nH]nn1)C3 [Compound C057, (2S,5S)-5-[(S)-2-(2-Fluoro-acetylamino)-3-methyl-butyrylamino]-4-oxo-1,2,4,5,6,7-hexahydro-azepino[3,2,1-hi]indole-2-carboxylic acid (1H-[1,2,3]triazol-4-ylmethyl)-amide] | *** (the symbol “***” indicates a remaining percentage of 71-100%) | 1 to 300 nM | 1 to 300 nM
11 | 1 to 300 nM | 1 to 300 nM | – | CC[C@H](C)[C@H](NC(=O)COCCF)C(=O)N[C@H]1CCc2cccc3c2N(C1=O)[C@H](C(=O)NCc1c[nH]nn1)C3 [Compound C058, (2S,5S)-5-{(2S,3S)-2-[2-(2-Fluoro-ethoxy)-acetylamino]-3-methyl-pentanoylamino}-4-oxo-1,2,4,5,6,7-hexahydro-azepino[3,2,1-hi]indole-2-carboxylic acid (1H-[1,2,3]-triazol-4-ylmethyl)-amide] | *** (the symbol “***” indicates a remaining percentage of 71-100%) | – | –
12 | – | – | – | CC[C@H](C)[C@H](NC(=O)CF)C(=O)N[C@H]1CCc2cccc3c2N(C1=O)[C@H](C(=O)NCc1c[nH]nn1)C3 [Compound C059, (2S,5S)-5-[(2S,3S)-2-(2-Fluoro-acetylamino)-3-methyl-pentanoylamino]-4-oxo-1,2,4,5,6,7-hexahydro-azepino[3,2,1-hi]indole-2-carboxylic acid (1H-[1,2,3]triazol-4-ylmethyl)-amide] | *** (the symbol “***” indicates a remaining percentage of 71-100%) | 1 to 300 nM | 1 to 300 nM
13 | 1 to 300 nM | 1 to 300 nM | – | CC[C@H](C)[C@H](NC(=O)c1ccccc1)C(=O)N[C@H]1COc2cccc3c2N(C1=O)[C@H](C(=O)NCc1c[nH]nn1)C3 [Compound C096, (1S,8S)-8-((2S,3S)-2-Benzoylamino-3-methyl-pentanoylamino)-9-oxo-1,2,8,9-tetrahydro-7H-6-oxa-9a-aza-benzo[cd]azulene-1-carboxylic acid (1H-[1,2,3]triazol-4-ylmethyl)-amide] | ** (“**” indicates a remaining percentage of 31-70%) | – | –

From patent US11667645B2, “Granzyme B directed imaging and therapy” (CytoSite Biopharma Inc., priority 2018, dated 2023)
